Laboratory results as given in article PMC4666645 (PLoS Pathogens, 2015).
Where “and” joins values, the source holds several entries; their conditions need not be identical. Equal values may be shown once. Where a name gives a salt, the structure may show the parent alone.

Assays:
Peq-26/27 receptor = Peq-26/27 receptor (Parascaris equorum, UniProt A0A0U2ES47+A0A0U2ES58); assay: cell-based; details: for Emax at 100 µM: read-out: Current elicited, % of ACh response
Procedure: In order to determine if ACR-26 and ACR-27 subunits from other parasitic nematodes species could also form functional receptors when expressed in Xenopus oocyte, Peq-acr-26 and Peq-acr-27 cRNAs from the distantly related P. equorum (Clade III) were co-injected in combination with Hco-ric-3.1, Hco-unc-74 and Hco-unc-50 cRNAs. Four days after injection, we observed robust expression of a functional AChR responding to 100 μM ACh (Fig 6B). […] This novel heteropentameric AChR was named Peq-26/27.
(§1) H. contortus and P. equorum acr-26 and acr-27 cDNAs were PCR-amplified using primers containing a restriction site in order to be sub-cloned into the expression vector pTB207 that is suitable for in vitro transcription. Primers are listed in S3 Table. The resulting plasmids were linearized with the NheI restriction enzyme (Fermantas) and used as templates for cRNA synthesis using the T7 mMessage mMachine kit (Ambion). Xenopus laevis ovaries were obtained from the University of Rennes, France (CRB Xenope) and defolliculated using 2 mg/ml collagenase type II (Gibco) in the incubation solution containing: 100 mM NaCl, 2 mM KCl, 1.8 mM CaCl2.2H2O, 1 mM MgCl2.6H2O, 5 mM HEPES, 2.5 mM C3H3NaO3, pH 7.5, supplemented with penicillin 100 U/mL and streptomycin 100 μg/mL). The oocytes were injected in the animal pole with a total volume of 36 nL of cRNA mix containing 50 ng/μL of each cRNA in RNase-free water using the Drummond nanoject II microinjector. Microinjected oocytes were kept at 20°C in incubation medium for 4 days to allow the receptors expression. Two-electrode voltage-clamp recordings were carried out using an Oocyte Clamp OC-725C amplifier (Warner instrument) in oocytes being voltage-clamped at -60mV. All agonist preparations were prepared with recording buffer (100 mM NaCl, 2.5 mM KCl, 1 mM CaCl2.2H2O, 5 mM HEPES, pH 7.3). Currents were recorded and analyzed using the pCLAMP 10.4 package (Molecular Devices).

[1] = target: T1, Hco-L-AChR-2 (Hco-UNC-38, Hco-UNC-63, Hco-UNC-29.1) (Haemonchus contortus, UniProt D6MYE9+D6MYF3+D6MYF4); assay: Two-electrode voltage-clamp on Xenopus oocytes expressing Hco-L-AChR-2; assay type: cell-based; details: for Response to agonist: 100 μM agonist
T1 sequence (D6MYF3 20-512): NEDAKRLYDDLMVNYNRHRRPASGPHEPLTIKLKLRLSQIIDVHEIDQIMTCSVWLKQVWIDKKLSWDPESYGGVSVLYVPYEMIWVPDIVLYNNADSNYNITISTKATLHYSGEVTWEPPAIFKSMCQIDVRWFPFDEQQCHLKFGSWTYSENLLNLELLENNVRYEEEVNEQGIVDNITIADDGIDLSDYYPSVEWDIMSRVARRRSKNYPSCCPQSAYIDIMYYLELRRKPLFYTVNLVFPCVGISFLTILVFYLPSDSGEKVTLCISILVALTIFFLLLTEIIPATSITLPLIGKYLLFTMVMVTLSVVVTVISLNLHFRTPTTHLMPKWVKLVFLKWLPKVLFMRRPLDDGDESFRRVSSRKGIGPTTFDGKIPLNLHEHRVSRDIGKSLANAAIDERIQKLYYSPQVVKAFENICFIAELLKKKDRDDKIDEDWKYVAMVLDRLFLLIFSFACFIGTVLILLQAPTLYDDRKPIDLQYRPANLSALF
T1 sequence (D6MYF4 22-504): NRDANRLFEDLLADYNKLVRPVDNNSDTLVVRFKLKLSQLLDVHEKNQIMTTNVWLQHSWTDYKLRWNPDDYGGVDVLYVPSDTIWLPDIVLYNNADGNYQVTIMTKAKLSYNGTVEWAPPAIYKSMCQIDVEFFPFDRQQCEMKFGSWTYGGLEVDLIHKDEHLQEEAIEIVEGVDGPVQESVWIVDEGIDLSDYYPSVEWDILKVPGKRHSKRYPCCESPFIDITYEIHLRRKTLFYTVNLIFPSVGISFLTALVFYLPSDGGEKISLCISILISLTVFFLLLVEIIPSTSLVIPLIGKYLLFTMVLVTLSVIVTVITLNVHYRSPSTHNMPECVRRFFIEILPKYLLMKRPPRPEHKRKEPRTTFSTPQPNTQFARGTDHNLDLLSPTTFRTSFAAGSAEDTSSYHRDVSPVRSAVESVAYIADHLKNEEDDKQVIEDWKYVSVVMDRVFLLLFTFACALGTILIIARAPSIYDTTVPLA
T1 sequence (D6MYE9 21-498): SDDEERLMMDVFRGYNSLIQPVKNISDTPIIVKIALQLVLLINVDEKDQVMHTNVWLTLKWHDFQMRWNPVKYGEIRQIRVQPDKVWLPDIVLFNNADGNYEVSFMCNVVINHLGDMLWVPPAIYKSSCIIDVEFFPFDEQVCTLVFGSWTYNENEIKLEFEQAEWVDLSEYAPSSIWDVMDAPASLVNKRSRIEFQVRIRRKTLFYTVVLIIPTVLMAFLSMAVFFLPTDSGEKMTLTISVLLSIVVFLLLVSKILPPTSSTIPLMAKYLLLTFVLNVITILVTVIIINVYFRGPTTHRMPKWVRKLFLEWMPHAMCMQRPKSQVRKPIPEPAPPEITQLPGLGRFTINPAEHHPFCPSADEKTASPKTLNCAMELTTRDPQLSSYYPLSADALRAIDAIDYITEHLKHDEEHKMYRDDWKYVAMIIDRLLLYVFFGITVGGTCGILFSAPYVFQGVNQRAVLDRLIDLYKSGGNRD
Excerpt: as §1
Supplementary file ppat.1005267.s003.tif: S3 Fig Pharmacological profiles of Hco-L-AChR-1 and Hco-L-AChR-2. […] The bars indicate the time period of the agonist application. Functional expression of Hco-L-AChR-1 requires the co-expression of Hco-UNC-38; Hco-UNC-63; Hco-UNC-29.1 and Hco-ACR-8 AChR subunits with the ancillary proteins Hco-RIC-3.1; Hco-UNC-50 and Hco-UNC-74 whereas Hco-L-AChR-2 requires the co-expression of Hco-UNC-38; Hco-UNC-63 and Hco-UNC-29.1 AChR subunits with the ancillary proteins Hco-RIC-3.1; Hco-UNC-50 and Hco-UNC-74. (C) Scatter plot (mean ± SEM) of normalized currents elicited by 100 μM Mor on Hco-26/27, Hco-L-AChR-1 and Hco-L-AChR-2. […]

Chain of Peq-26/27 receptor (A0A0U2ES58 entry or part of it): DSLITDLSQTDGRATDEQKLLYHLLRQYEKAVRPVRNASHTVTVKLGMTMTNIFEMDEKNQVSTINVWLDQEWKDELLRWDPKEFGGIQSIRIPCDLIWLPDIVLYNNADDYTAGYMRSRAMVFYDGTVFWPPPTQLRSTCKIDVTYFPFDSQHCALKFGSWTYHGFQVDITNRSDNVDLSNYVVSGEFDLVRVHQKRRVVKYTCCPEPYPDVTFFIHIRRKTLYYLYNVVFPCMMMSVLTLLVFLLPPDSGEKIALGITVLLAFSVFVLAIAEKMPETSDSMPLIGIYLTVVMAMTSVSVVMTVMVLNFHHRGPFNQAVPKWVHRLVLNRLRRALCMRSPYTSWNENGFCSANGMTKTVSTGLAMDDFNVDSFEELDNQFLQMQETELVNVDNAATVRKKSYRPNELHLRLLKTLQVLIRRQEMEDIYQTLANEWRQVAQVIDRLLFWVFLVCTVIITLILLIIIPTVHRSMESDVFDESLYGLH
Chain of Peq-26/27 receptor (A0A0U2ES47 entry or part of it): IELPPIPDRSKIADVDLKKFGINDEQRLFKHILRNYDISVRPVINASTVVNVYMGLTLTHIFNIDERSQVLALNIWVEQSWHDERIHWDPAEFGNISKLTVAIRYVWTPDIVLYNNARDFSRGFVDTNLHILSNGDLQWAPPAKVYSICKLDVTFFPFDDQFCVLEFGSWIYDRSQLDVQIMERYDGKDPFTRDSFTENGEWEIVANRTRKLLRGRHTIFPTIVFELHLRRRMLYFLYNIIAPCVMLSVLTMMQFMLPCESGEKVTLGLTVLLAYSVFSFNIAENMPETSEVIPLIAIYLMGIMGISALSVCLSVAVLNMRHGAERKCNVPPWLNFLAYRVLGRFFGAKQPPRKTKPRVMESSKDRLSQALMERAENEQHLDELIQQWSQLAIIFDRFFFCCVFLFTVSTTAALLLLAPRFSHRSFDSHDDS

Structure (SMILES)	EC50 (Peq-26/27 receptor; EC50, responses normalized to 1 mM ACh)	Emax at 100 µM (Peq-26/27 receptor) [%]	EC50 [1] [µM]	Response to agonist [1]
c1ccc([C@H]2CN3CCSC3=N2)cc1 [Lev, (-)-tetramisole hydrochloride]	16.7 µM and 17 µM	24.5 ± 2.4	–	–
Cc1ccsc1/C=C/C1=NCCCN1C [Mor, morantel]	–	74.5 ± 4.9	3.2 ± 1.2	less activated
CN1CCCN=C1/C=C/c1cccs1 [Pyr, pyrantel]	–	21.8 ± 2.1	–	highly responsive
